Data: patent US20240335569A1, “FIBROBLAST ACTIVATION PROTEIN INHIBITORS AND USE THEREOF” (3 B PHARMACEUTICALS GMBH, priority 2021, published 2024)

What was measured:
[1] = target: Recombinant human DPP4 (Homo sapiens (Human), UniProt P27487); assay: DPP4 protease activity assay; type: biochemical
Experimental: The PREP activity assay was performed using the FACS buffer (PBS including 1% FBS, Sigma-Aldrich, Cat #D8537). […] The DPP4 activity assay was performed in DPP assay buffer (25 mM Tris, pH 8.0). […] Four parameter logistic (4PL) curve fitting and pIC50 calculations were performed using ActivityBase software.

[2] = system: HT-29 cells; assay: Stability in the presence of tumor cells (HT-29), FAP IC50 of supernatants; type: in vitro ADME, human; settings: for pIC50 (incubation in cell medium w/o HT-29) / pIC50 (incubation in the presence of HT-29 cells): 10 μM compound, supernatant tested on recombinant human FAP; for pIC50 (incubation in cell medium w/o HT-29): 24 hours at 37° C. in control wells without cells; for pIC50 (incubation in the presence of HT-29 cells): 24 hours at 37° C. with HT-29 cells
[3] = target: FAP-expressing human WI-38 fibroblasts (Homo sapiens (Human), UniProt Q12884); assay: FACS binding assay (competitive, Cy5-labeled 3BP-2935); settings: FAP-expressing WI-38 fibroblasts
Experimental: In order to determine binding of compounds according to the present invention to FAP-expressing cells, a competitive FACS binding assay was established. […] Cells were diluted in FACS buffer to a final concentration of 100.000 cells per ml and 200 μl of the cell suspension are transferred to a u-shaped non-binding 96-well plate (Greiner). […] Cell were washed twice with FACS buffer (see above) and resuspended in 200 μl FACS buffer. Cells were analyzed in an Attune NxT flow cytometer (Thermo Fisher Scientific). Median fluorescence intensities (Cy5 channel) were calculated by Attune NxT software and plotted against test compound concentrations. Four parameter logistic (4PL) curve fitting and pIC50 calculations were performed using ActivityBase software.

[4] = target: T1, Human recombinant FAP (Homo sapiens (Human), UniProt Q12884); assay: FAP protease activity assay (human), FRET-based; type: biochemical; settings: recombinant human FAP, FRET protease activity
Experimental: In order to determine the inhibitory activity a FRET-based FAP protease activity assay was established.
Four parameter logistic (4PL) curve fitting and pIC50 calculations were performed using ActivityBase software (IDBS).
Target sequence in this assay (Q12884 26-760): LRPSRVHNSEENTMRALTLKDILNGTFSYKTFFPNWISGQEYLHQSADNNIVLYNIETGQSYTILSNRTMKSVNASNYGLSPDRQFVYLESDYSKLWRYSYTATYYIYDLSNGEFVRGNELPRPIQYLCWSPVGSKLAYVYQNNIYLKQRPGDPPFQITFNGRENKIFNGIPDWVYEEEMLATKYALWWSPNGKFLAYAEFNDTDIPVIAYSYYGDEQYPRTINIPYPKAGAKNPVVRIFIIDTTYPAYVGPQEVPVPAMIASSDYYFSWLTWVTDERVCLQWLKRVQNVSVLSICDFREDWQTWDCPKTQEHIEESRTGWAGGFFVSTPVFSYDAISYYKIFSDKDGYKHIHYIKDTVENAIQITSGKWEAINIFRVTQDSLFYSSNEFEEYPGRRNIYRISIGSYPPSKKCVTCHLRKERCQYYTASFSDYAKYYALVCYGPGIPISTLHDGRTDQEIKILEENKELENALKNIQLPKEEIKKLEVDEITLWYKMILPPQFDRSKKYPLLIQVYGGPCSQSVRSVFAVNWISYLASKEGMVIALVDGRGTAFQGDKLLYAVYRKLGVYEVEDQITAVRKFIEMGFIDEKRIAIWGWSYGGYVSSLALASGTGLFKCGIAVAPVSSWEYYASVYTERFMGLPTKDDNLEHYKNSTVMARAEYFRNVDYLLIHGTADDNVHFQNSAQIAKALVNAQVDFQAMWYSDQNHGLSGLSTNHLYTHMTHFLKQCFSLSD

[5] = target: T1, Human recombinant FAP; assay: Surface plasmon resonance assay (Biacore T200, SCK); type: binding; settings: for HL [min] (Biacore): SPR dissociation half-life; for pKD (Biacore): SPR
Experimental: Surface plasmon resonance studies were performed using a Biacore™ T200 SPR system (Cytiva, formerly GE Healthcare). Briefly, polarized light is directed towards a gold-labeled sensor surface, and minimum intensity reflected light is detected. The angle of reflected light changes as molecules bind and dissociate. […] Test compounds are contacted with the loaded surface, and a real-time interaction profile with the FAP ligand is recorded in a sensorgram. In real-time, the association and dissociation of a binding interaction is measured, enabling calculation of association and dissociation rate constants and the corresponding affinity constants. Importantly, a background response is generated due to the difference in the refractive indices of the running and sample buffers, as well as unspecific binding of the test compounds to the flow cell surface. This background is measured and subtracted by running the sample on a control flow cell coated with the same density of capture antibody in the absence of immobilized FAP. Furthermore, baseline drift correction of the binding data is performed, which is caused by slow dissociation of the captured FAP from the immobilized antibody. This drift is measured by injecting running buffer through a flow cell with the antibody and FAP immobilized to the sensor surface.
Biacore™ CM5 sensor chips were used. […] A 150 μL aliquot was transferred into plastic vials and placed into the sample rack of the Biacore™ T200 instrument. Amine Coupling Kit Reagent solutions were transferred into plastic vials and placed into the sample rack: 90 μL of 0.4 M 1-ethyl-3-(3-dimethylaminopropyl) carbodiimide (EDC), and 90 μL of 0.1 M N-hydroxysuccinimide (NHS). A 130 μL aliquot of 1 M ethanolamine-HCl, pH 8.5, was transferred into plastic vials and placed into the sample rack. The Biacore™ liquid system was set-up as follows: Separate bottles containing distilled water (1 L), Running Buffer (500 mL), as well as an empty bottle for waste were placed onto the buffer tray. A preinstalled program for immobilization was used, with an immobilization level of 7000 RU. Immobilization was performed at 25° C. The immobilization procedure of anti-FAP antibodies was performed, as described in the Table 4.
Human recombinant FAP was diluted in Running Buffer to a final concentration of 20 μg/mL. A 100 μL aliquot of human FAP-Working-Solution was transferred into plastic vials and placed into a sample rack. A 0.5 mM Compound-Stock-Solution was prepared by dissolving each compound in DMSO. For each test compound, Compound-Stock-Solutions were diluted in Running Buffer (HBST) at 500 nM and further diluted with HBST-DMSO Buffer (0.1% DMSO). SPR binding analyses for binary complexes were performed in SCK mode at 25° C. Following three SCK measurements, a baseline drift was assessed by injecting running buffer through a flow cell, with the antibody and FAP immobilized to the sensor surface.
For each test compound, SPR raw data in the form of resonance units (RU) were plotted as sensorgrams using the Biacore™ T200 control software. The signal from the blank sensorgram was subtracted from that of the test compound sensorgram (blank corrected). The blank corrected sensorgram was corrected for baseline drift by subtracting the sensorgram of a SCK run without the test compound (running buffer only). The association rate (kon), dissociation rate (koff), dissociation constant (KD), and t1/2 were calculated from Blank-normalized SPR data using the 1:1 Langmuir binding model from the Biacore™ T200 evaluation software. Raw data and fit results were imported as text files in IDBS. The pKD value (negative decadic logarithm of dissociation constant) was calculated in the IDBS excel template.
Target sequence in this assay (Q12884 whole entry): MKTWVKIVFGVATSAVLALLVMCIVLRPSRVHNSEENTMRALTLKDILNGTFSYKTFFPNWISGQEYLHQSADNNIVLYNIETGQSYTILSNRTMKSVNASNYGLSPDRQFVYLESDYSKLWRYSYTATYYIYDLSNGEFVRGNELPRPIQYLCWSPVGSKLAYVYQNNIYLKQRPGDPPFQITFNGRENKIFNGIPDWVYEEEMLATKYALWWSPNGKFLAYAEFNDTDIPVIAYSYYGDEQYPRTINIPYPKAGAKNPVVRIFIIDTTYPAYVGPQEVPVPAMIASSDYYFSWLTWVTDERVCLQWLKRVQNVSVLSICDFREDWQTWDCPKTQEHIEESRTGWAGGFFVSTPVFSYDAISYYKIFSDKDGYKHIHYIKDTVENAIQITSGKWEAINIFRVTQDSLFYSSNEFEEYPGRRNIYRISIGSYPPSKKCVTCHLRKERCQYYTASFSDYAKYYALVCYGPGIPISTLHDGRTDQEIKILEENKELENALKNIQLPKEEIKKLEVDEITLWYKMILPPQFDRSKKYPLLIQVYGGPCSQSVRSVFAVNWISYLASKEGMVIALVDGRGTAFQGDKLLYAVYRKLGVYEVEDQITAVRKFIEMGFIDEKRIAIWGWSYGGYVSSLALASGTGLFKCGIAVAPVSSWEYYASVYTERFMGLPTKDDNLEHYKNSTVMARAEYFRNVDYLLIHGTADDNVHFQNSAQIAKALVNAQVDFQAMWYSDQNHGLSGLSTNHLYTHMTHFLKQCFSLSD

Chain of FAP-expressing human WI-38 fibroblasts (Q12884 whole entry): as above
Chain of Recombinant human DPP4 (P27487 whole entry): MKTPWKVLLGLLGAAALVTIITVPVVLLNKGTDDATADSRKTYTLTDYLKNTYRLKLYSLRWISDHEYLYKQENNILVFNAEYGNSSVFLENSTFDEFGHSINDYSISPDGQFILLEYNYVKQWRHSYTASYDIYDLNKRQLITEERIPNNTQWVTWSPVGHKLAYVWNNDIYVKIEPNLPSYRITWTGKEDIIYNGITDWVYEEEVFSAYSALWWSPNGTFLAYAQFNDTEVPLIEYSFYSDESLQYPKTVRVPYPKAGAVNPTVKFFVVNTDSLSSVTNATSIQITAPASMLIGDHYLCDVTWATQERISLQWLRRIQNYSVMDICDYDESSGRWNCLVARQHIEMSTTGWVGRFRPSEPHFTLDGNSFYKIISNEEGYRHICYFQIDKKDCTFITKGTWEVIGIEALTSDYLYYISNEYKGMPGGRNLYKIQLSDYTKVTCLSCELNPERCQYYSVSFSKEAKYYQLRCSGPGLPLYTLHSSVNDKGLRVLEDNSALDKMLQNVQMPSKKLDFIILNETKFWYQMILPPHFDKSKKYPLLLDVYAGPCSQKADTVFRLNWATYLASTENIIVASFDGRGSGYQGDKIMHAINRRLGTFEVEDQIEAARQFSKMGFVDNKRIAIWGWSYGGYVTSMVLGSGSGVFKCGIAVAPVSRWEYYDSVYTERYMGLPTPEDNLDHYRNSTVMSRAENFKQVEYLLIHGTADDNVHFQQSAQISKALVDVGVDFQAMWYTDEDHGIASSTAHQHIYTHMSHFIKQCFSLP

SMILES	Residual activity after incubation with HT-29 cells for 24 hours (%) [2]	pIC50 (FACS) [3]	pIC50 (Activity) [4]	HL [min] (Biacore) [5]	also measured
N#C[C@@H]1CCCN1C(=O)CNC(=O)c1ccnc2ccccc12 [Compound 3BP-2762]	63%				pIC50 (DPP4) [1]: <6; pIC50 (incubation in cell medium w/o HT-29) [2]: 8.4
Cn1ncnc1C(=O)[C@@H]1CCCN1C(=O)CNC(=O)c1ccnc2ccccc12 [Compound 3BP-3207]		<6	6.5		
N#C[C@@H]1CC(F)(F)CN1C(=O)CNC(=O)c1ccnc2ccccc12 [Compound 3BP-3232]	13%				pIC50 (incubation in the presence of HT-29 cells) [2]: 8.0
CS(=O)(=O)c1ccc(-c2ccc3c(C(=O)NCC(=O)N4CC(F)(F)C[C@H]4C#N)ccnc3c2)cc1 [Compound 3BP-3236]				37 min	
O=C(O)CN1CCN(CC(=O)O)CCN(CC(=O)N2CCN(CCCOc3ccc4nccc(C(=O)NCC(=O)N5CC(F)(F)C[C@H]5C(=O)c5nc6ccccc6o5)c4c3)CC2)CCN(CC(=O)O)CC1 [Compound 3BP-3412]	>95%			57 min	pIC50 (incubation in the presence of HT-29 cells) [2]: 8.6
N#C[C@@H]1CC(F)(F)CN1C(=O)CNC(=O)c1ccnc2ccc(-c3ccc(S(=O)(=O)CCCNC(=O)CN4CCN(CC(=O)O)CCN(CC(=O)O)CCN(CC(=O)O)CC4)cc3)cc12 [Compound 3BP-3467]	13%			>150 min	pKD (Biacore) [5]: >10.5; pIC50 (incubation in cell medium w/o HT-29) [2]: 9.3; pIC50 (incubation in the presence of HT-29 cells) [2]: 8.4

More lines, main results first:

Residual activity after incubation with HT-29 cells for 24 hours (%) [2]	pIC50 (FACS) [3]	pIC50 (Activity) [4]	HL [min] (Biacore) [5]	SMILES	also measured
	8.6	9		CC(C)(C)OC(=O)N1CC[N+]([O-])(CCCOc2ccc3nccc(C(=O)NCC(=O)N4CC(F)(F)C[C@H]4C#N)c3c2)CC1 [Compound 3BP-3577]	
	8	8.6		CC(C)(C)OC(=O)N1CC[N+]([O-])(CCCOc2ccc3c(c2)c(C(=O)NCC(=O)N2CC(F)(F)C[C@H]2C#N)cc[n+]3[O-])CC1 [Compound 3BP-3578]	
	8	8.6		CC(C)(C)OC(=O)N1CCN(CCCOc2ccc3c(c2)c(C(=O)NCC(=O)N2CC(F)(F)C[C@H]2C#N)cc[n+]3[O-])CC1 [Compound 3BP-3579]	
	8.4	8.8		CC(C)(C)OC(=O)N1CCN(CCCOc2ccc3nccc(C(=O)NCC(=O)N4CC(F)(F)C[C@H]4C#N)c3c2)CC1 [Compound 3BP-3580]	
			>150 min	N#C[C@@H]1CC(F)(F)CN1C(=O)CNC(=O)c1ccnc2ccc(-c3ccc(C(=O)NCCCNC(=O)CN4CCN(CC(=O)O)CCN(CC(=O)O)CCN(CC(=O)O)CC4)cc3)cc12 [Compound 3BP-3621]	pKD (Biacore) [5]: >10.5
			>150 min	N#C[C@@H]1CC(F)(F)CN1C(=O)CNC(=O)c1ccnc2ccc(-c3ccc(C(=O)NCCN4CCN(C(=O)CN5CCN(CC(=O)O)CCN(CC(=O)O)CCN(CC(=O)O)CC5)CC4)cc3)cc12 [Compound 3BP-3631]	pKD (Biacore) [5]: >10.5
